From US12702715B2, “Targeted RNA degradation allows precision repurposing of protein-targeted small molecule medicines to RNA” (University of Florida Research Foundation, Incorporated, priority 2020, dated 2026)
Entries after “also recorded” stand apart in the source; their conditions may differ.

Assays:
pre-miR-21 = assay: In vitro Dicer processing of pre-miR-21; assay type: biochemical, human
Experimental: (§1) In vitro Dicer Processing. The pre-miR-21 WT RNA or pre-miR-21 base pair mutant were 5′-end labeled with T4 polynucleotide kinase and [γ-^32P] ATP as described previously^7. The RNA was folded in 1× Reaction Buffer (Genlantis) by heating at 55° C. for 5 min and cooling slowly to room temperature on the benchtop. The mixture was then supplemented with 2.5 mM MgCl2 and 1 mM ATP. The Dicer processing reaction was performed as described previously^6. The cleavage products were resolved on a 15% polyacrylamide denaturing gel and imaged using a Molecular Dynamics Typhoon phosphorimager and quantified with QuantityOne software from Bio-Rad.

PTEN = PTEN luciferase assay; assay type: cell-based, human; settings: MDA-MB-231
Experimental: PTEN Luciferase Assay. To study de-repression of PTEN, a luciferase-based cellular assay was performed as previously described^6. Briefly, MDA-MB-231 cells (~60% confluency) in 48-well plates were co-transfected with plasmids encoding Renilla luciferase (for normalization) and firefly luciferase fused to the 3′ UTR of PTEN by using Lipofectamine 2000 according to the manufacturer's protocol. After 5 h, the cells were treated with the compounds diluted in growth medium. Luciferase assay were then completed as previously described^4, 9.

pre-miR-21 mutant = assay: In vitro Dicer processing of pre-miR-21 mutant; assay type: biochemical
Experimental: as §1

pre-miR-21 WT RNA = assay: In vitro Chem-CLIP and C-Chem-CLIP, pre-miR-21 WT; assay type: binding, human
Experimental: In Vitro Chemical Cross-linking and Isolation by Pull Down (Chem-CLIP) and Competitive Chem-CLIP (C-Chem-CLIP). Growth medium [RMPI 1640 medium with L-glutamine & 25 mM HEPES (Corning)] was inactivated by heating at 95° C. to for 15 min and slowly cooling to room temperature at benchtop. Pre-miR-21 labeled with ^32P at the 5′-end (~10,000 counts) was folded in growth medium by heating at 95° C. for 1 min and slowly cooling to room temperature. To the samples was added Chem-CLIP probe 4 (1, 5, 20 or 100 μM) or negative control probe 5 (1, 5, 20 or 100 μM), and the mixtures were incubated at 37° C. for 1 h. The samples were then cross-linked by irradiation with 365 nm light for 10 min. The Chem-CLIP probe 4 or control probe 5, whether or not cross-linked to the RNA, was then clicked to disulfide biotin azide (10 mM in DMSO; 10 μL per sample; 1168-10, Click Chemistry Tools) by incubating in a solution containing 1×HEPES buffer (25 mM, pH 7), sodium ascorbate (10 μL/sample, 250 mM in H2O), CuSO4 (10 μL/sample, 50 mM in H2O), THPTA (10 μL/sample, 50 mM in H2O) for 2 h at 37° C. […] The radioactive signal from bound RNAs (on the beads) and unbound RNAs (from the wash steps) were measured by using a Beckman Coulter LS6500 Liquid Scintillation Counter. Enrichment of pre-miR-21 was calculated as previously described^6. […]

MDA-MB-231-Luc cells = assay type: in vivo, mouse; settings: for pre-miR-21 levels in lung tissue: FISH; for pre-miR-21 levels in lung tissue / ERK levels in lung tissue / PDCD4 expression in lung tissue: 1 assessed after 12 days of dosing; for ERK levels in lung tissue / PDCD4 expression in lung tissue: IHC
Excerpt: In Vivo Studies to Assess Metastasis of Breast Cancer to the Lung. Female NOD/SCID mice (n=10; 5-7 weeks) were used for in vivo breast cancer metastasis studies as previously reported^6. Briefly, mice purchased from Jackson Laboratory were intravenously injected (tail vein) with MDA-MB-231-Luc cells (0.8×10^6 cells/mice). Luciferase activity was monitored every other day to determine when to initiate treatment [averaged luciferase signal from mice is ten times higher than the background as measured by LagoX (Spectral Instruments)]. After 5 days, the mice were split into three groups, with each group having the same luciferase signal. […]. After 30 days, lungs were harvested and immediately fixed in Bouin's solution (Sigma, HT10132-1L) for 24 h to image nodules. After counting the nodules, the fixed lungs were washed in 60 mL of 10% formalin solution four times over 48 h to remove Bouin's solution. Paraffin-embedded sections of the lungs were then generated by the Histology Core at Scripps Research Florida for further staining.
Lung Tissue Histology. All histological analyses were performed as previously reported^6. The slides were stained on a Leica BondMax Immunostaining platform by using a DAB refine kit. H&E staining and PDCD4, pERK and ERK IHC were performed by the Histology Core at Scripps Research Florida. All antibodies were used at a 1:100 dilution: anti-PDCD4 (Abcam, ab51495); anti-pERK (Cell Signaling Technology, 4370S); and ERK (Cell Signaling Technology, 9102S). The primary antibodies were detected using a DAB Substrate Kit (Vector Laboratories, Inc.) per the manufacturer's protocol.
To visualize miR-21 and pre-miR-21 by fluorescence in situ hybridization (FISH), the paraffin-embedded sections were incubated at 56° C. overnight and cleaned with xylene three times, followed by washing with serially diluted concentrations of ethanol (100%, 95%, 90%, and 85%). The slides were then washed with MilliQ water three times and immersed in 0.3% (v/v) H2O2 for 30 min at room temperature. The slides were then washed with MilliQ water three times and digested with proteinase K (QIAGEN) at 37° C. for 15 min. After washing three times with MilliQ water, the slides were dehydrated with 95% ethanol and air-dried completely at room temperature. The slides were then hybridized with FITC-labeled LNA probes^6 complementary to mature ([…]*/36-FAM SEQ ID NO: 16) or pre-miR-21 ([…]/36-FAM SEQ ID NO: 17) at […] overnight. After hybridization, the slides were washed with 2×SSC (saline sodium citrate buffer) three times and then 1×DPBS three times, all at room temperature. The slides were then incubated with an anti-FITC horseradish peroxidase-conjugated antibody (Abcam) for 2 h at room temperature. The slides were washed with 1×TBST three times.
After staining of interest was completed, the slides were dehydrated, cover-slipped with Cytoseal 60, and imaged with a Leica DM13000 B upright fluorescent microscope.

SMILES: CN1CCN(c2ccc3nc(-c4c(N)c5c(F)cccc5[nH]c4=O)[nH]c3c2)CC1 [Compound 1, Dovitinib, reference compound]
- in vitro processing of pre-miR-21 (pre-miR-21): inhibited
- PTEN expression (luciferase-based assay) (PTEN): derepressed
- inhibition of Dicer processing of mutant pre-miR-21 lacking the 1 binding site (pre-miR-21 mutant): had no effect; also recorded: unable to inhibit
- competition of enrichment of pre-miR-21 by 4 (pre-miR-21 WT RNA; in vitro C-Chem-CLIP): competed off
- pre-miR-21 levels in lung tissue (MDA-MB-231-Luc cells): did not affect
- ERK levels in lung tissue (MDA-MB-231-Luc cells): did not affect
- PDCD4 expression in lung tissue (MDA-MB-231-Luc cells): did not affect

SMILES: CCOC(=O)C1=C(Nc2ccccc2)S/C(=C\c2ccc(OCCOCCOCCOCCNC(=O)NCCN3CCN(c4ccc5[nH]c(-c6c(N)c7c(F)cccc7[nH]c6=O)nc5c4)CC3)c(O)c2)C1=O [Compound 2, Ribotac-Dovitinib]
- PTEN expression (luciferase-based assay) (PTEN): derepressed
- weight change of NOD/Scid mice (MDA-MB-231-Luc cells; 56 mg/kg q.o.d., over 38 days): did not cause significant changes in weight
- pre-miR-21 levels in lung tissue (MDA-MB-231-Luc cells): significantly diminished
- ERK levels in lung tissue (MDA-MB-231-Luc cells): had no effect
- PDCD4 expression in lung tissue (MDA-MB-231-Luc cells): derepressed
- hematoxylin and eosin (HE) staining of lung (MDA-MB-231-Luc cells; mouse, in vivo): decrease

SMILES: C#CCCC1(CCC(=O)NCCN2CCN(c3ccc4[nH]c(-c5c(N)c6c(F)cccc6[nH]c5=O)nc4c3)CC2)N=N1 [Compound 4]
- enrichment of 32P-labeled pre-miR-21 WT (pre-miR-21 WT RNA; 1, 5, 20 or 100 μM): dose-dependently enriched
